From patent US4223036A, “1-(1,3-Dioxolan-2-ylmethyl)-1H-1,2,4-triazoles” (Janssen Pharmaceutica N.V., priority 1979, dated 1980)
Counter-ions that a name gives are not always drawn.

How the values were obtained:
Candida albicans [1] = experiment: Activity against crop candidosis in turkeys (dose whereby crops of 50% of animals were completely negative); format: in vivo; details: medicated feed for 13 consecutive days
Procedure: Experiment B: Activity of Compounds (I) Against Crop Candidosis in Turkeys
Turkeys of 14 days old were infected in the crop with 4.10^6 Candida albicans cells, grown on Sabouraud broth for 48 hours at 37° C. and diluted with saline. The volume of the inoculum was 1 ml. The drug under investigation were premixed in 500 mg of lacton and thereafter admixed in 1000 g of meal without any additives. The concentration of the drug under investigation in the meal was expressed in mg/kg.
The animals were given the medicated feed for 13 consecutive days starting on the day of infection. At the end of the experiment all animals were sacrificed. At autopsy the crops were removed, emptied and grinded in an ultra-turrax mixer in 15 ml of sterile saline. Colony counting was done on Sabouraud agar and the results given in the Tables I, II and III represent the ED50, i.e., the dose of the drug whereby the crops of 50% of the animals were completely negative for Candida albicans.

Candida albicans [2] = experiment: Activity against vaginal candidosis in rats (lowest oral dose active at the 14th day after infection); format: in vivo, Female Wistar rats; set-up: lowest effective oral dose (vaginal candidosis in rats): unit not given here; details: oral once a day for two days, active at 14th day after infection; for lowest effective oral dose (vaginal candidosis in rats): Table I; for minimal effective dose: Candida albicans, 336 h
Procedure: Experiment A: Activity of Compounds (I) Against Vaginal Candidosis in Rats
Female Wistar rats of ±100 g body weight were used. They were ovariectomized and hysterectomized and after three weeks of recovery, 100 μg of oestradiol undecylate in sesame oil was given subcutaneously once a week for 3 consecutive weeks. The thus induced pseudooestrus was controlled by microscopic examination of vaginal smears. Food and water were left available ad libitum.
The rats were infected intravaginally with 8.10^5 cells of Candida albicans, grown on Sabouraud broth for 48 hours at 37° C. and diluted with saline. The date of infection varied from day +25 to day +32 after surgical intervention, depending on the appearance of signs of induced pseudo-oestrus.
The drugs under investigation were administered orally once a day for two days starting from the day of infection. For each experiment there were placebo treated controls. The results were assessed by taking vaginal smears with sterile swabs on several days after infection. The swabs were put into Sabouraud broth in petri-dishes and incubated for 48 hours a 37° C. If no growth of Candida albicans occured, i.e., when the animals were negative at the end of the experiment, this was due to drug administration because it never happened in placebo treated controls.
The Tables I, II and III below give the lowest oral dose of the drug under investigation which was found active at the 14th day after infection.

| SMILES | ED50 (crop candidosis in turkeys) (Candida albicans [1]; Table I) | lowest effective oral dose (vaginal candidosis in rats) (Candida albicans [2]) | other results |
| --- | --- | --- | --- |
| COc1ccc(C(=O)Nc2ccc(OC[C@H]3CO[C@](Cn4ccnc4)(c4ccc(Cl)cc4Cl)O3)cc2)cc1 (relative stereo) | 16 mg/kg of feed | 40 |  |
| CC(C)CN1CCN(c2ccc(OC[C@H]3CO[C@](Cn4cncn4)(c4ccc(Cl)cc4Cl)O3)cc2)CC1 (relative stereo) [CH2CH(CH3)2] |  |  | ED50 (crop candidosis in turkeys) (Candida albicans [1]; Table II): 31 mg/kg of feed; minimal effective dose (Candida albicans [2]; Table II): 2.5 mg/kg |
| CS(=O)(=O)N1CCN(c2ccc(OC[C@H]3CO[C@](Cn4ccnc4)(c4ccc(Cl)cc4Cl)O3)cc2)CC1 (relative stereo) | 31 mg/kg of feed | 1.25 |  |
| COC(=O)N1CCN(c2ccc(OC[C@H]3CO[C@](Cn4ccnc4)(c4ccc(Cl)cc4Cl)O3)cc2)CC1 (relative stereo) | 8 mg/kg of feed | 2.5 |  |
| CN1CCN(c2ccc(OC[C@H]3CO[C@](Cn4cncn4)(c4ccc(Cl)cc4Cl)O3)cc2)CC1 (relative stereo) [CH3] |  |  | ED50 (crop candidosis in turkeys) (Candida albicans [1]; Table II): 16 mg/kg of feed; minimal effective dose (Candida albicans [2]; Table II): 1.25 mg/kg |
| CC(=O)Nc1cccc(OC[C@H]2CO[C@](Cn3ccnc3)(c3ccc(Cl)cc3Cl)O2)c1 (relative stereo) [3 (NHCOCH3), cis-N-{3-[2-(2,4-dichlorophenyl)-2-(1H-imidazol-1-ylmethyl)-1,3-dioxolan-4-ylmethoxy]phenyl}acetamide nitrate] |  |  | ED50 (crop candidosis in turkeys) (Candida albicans [1]; Table III): 63 mg/kg of feed; minimal effective dose (Candida albicans [2]; Table III): 10 mg/kg |
| Nc1ccc(OC[C@H]2CO[C@](Cn3ccnc3)(c3ccc(Cl)cc3Cl)O2)cc1[N+](=O)[O-] (relative stereo) [Example 4-NH2, cis-4-[2-(2,4-dichlorophenyl)-2-(1H-imidazol-1-ylmethyl)-1,3-dioxolan-4-ylmethoxy]-2-nitrobenzenamine] |  |  | ED50 (crop candidosis in turkeys) (Candida albicans [1]; Table III): 31 mg/kg of feed; minimal effective dose (Candida albicans [2]; Table III): 5 mg/kg |
| CCNc1ccc(OC[C@H]2CO[C@](Cn3ccnc3)(c3ccc(Cl)cc3Cl)O2)cc1 (relative stereo) [NHCH2CH3, cis-4-[2-(2,4-dichlorophenyl)-2-(1H-imidazol-1-ylmethyl)-1,3-dioxolan-4-ylmethoxy]-N-ethylbenzenamine] | 31 mg/kg of feed | 2.5 |  |
| CCNC(=S)Nc1ccc(OC[C@H]2CO[C@](Cn3ccnc3)(c3ccc(Cl)cc3Cl)O2)cc1 (relative stereo) [NHCSNHC2 H5, cis-N-{4-[2-(2,4-dichlorophenyl)-2-(1H-imidazol-1-ylmethyl)-1,3-dioxolan-4-ylmethoxy]phenyl}-N'-ethylthiourea] | 125 mg/kg of feed | 5 |  |
| CNC(=S)Nc1ccc(OC[C@H]2CO[C@](Cn3ccnc3)(c3ccc(Cl)cc3Cl)O2)cc1 (relative stereo) [NHCSNHCH3, cis-N-{4-[2-(2,4-dichlorophenyl)-2-(1H-imidzol-1-yl-methyl)-1,3-dioxolan-4-ylmethoxy]-phenyl}-N'-methylthiourea] | 125 mg/kg of feed | 10 |  |
| CCCN1CCN(c2ccc(OC[C@H]3CO[C@](Cn4ccnc4)(c4ccc(Cl)cc4Cl)O3)cc2)CC1 (relative stereo) | 16 mg/kg of feed | 2.5 |  |
| CCNC(=O)N1CCN(c2ccc(OC[C@H]3CO[C@](Cn4ccnc4)(c4ccc(Cl)cc4Cl)O3)cc2)CC1 (relative stereo) | 125 mg/kg of feed | 10 |  |
| CCC(=O)Nc1ccc(OC[C@H]2CO[C@](Cn3ccnc3)(c3ccc(Cl)cc3Cl)O2)cc1 (relative stereo) [NHCOC2 H5, cis-N-{4-[2-(2,4-dichlorophenyl)-2-(1H-imidazol-1-ylmethyl)-1,3-dioxolan-4-ylmethoxy]phenyl}propanaide ethanedioate. 2-propanolate] | 31 mg/kg of feed | 10 |  |
| O=CNc1ccc(OC[C@H]2CO[C@](Cn3ccnc3)(c3ccc(Cl)cc3Cl)O2)cc1 (relative stereo) [NHCHO, cis-N-{4-[2-(2,4-dichlorophenyl)-2-(1H-imidazol-1-yl-methyl)-1,3-dioxolan-4-ylmethoxy]phenyl}formamide] | 31 mg/kg of feed | 2.5 |  |
| O=C(Nc1ccc(OC[C@H]2CO[C@](Cn3ccnc3)(c3ccc(Cl)cc3Cl)O2)cc1)c1ccc(Br)cc1 (relative stereo) | 31 mg/kg of feed | 10 |  |
| Clc1ccc([C@@]2(Cn3ccnc3)OC[C@H](COc3ccc(N4CCN(Cc5ccccc5)CC4)cc3)O2)c(Cl)c1 (relative stereo) [drawing 50] | 16 mg/kg of feed | 1.25 |  |
| CCC(C)N1CCN(c2ccc(OC[C@H]3CO[C@](Cn4cncn4)(c4ccc(Cl)cc4Cl)O3)cc2)CC1 (relative stereo) [CH(CH3)CH2CH3] |  |  | ED50 (crop candidosis in turkeys) (Candida albicans [1]; Table II): 63 mg/kg of feed; minimal effective dose (Candida albicans [2]; Table II): 2.5 mg/kg |
| Clc1ccc([C@@]2(Cn3ccnc3)OC[C@H](COc3ccc(N4CCN(Cc5ccccc5)CC4)cc3)O2)c(Cl)c1 (relative stereo) [drawing 46] | 31 mg/kg of feed | 2.5 |  |
| CCOC(=O)Nc1ccc(OC[C@H]2CO[C@](Cn3ccnc3)(c3ccc(Cl)cc3Cl)O2)cc1 (relative stereo) [NHCOOC2 H5, cis-ethyl {4-[2-(2,4-dichlorophenyl)-2-(1H-imidazol-1-ylmethyl)-1,3-dioxolan-4-ylmethoxy]phenyl}carbamate] | 16 mg/kg of feed | 5 |  |
| CC(=O)Nc1ccc(OC[C@H]2CO[C@](Cn3ccnc3)(c3ccc(Cl)cc3Cl)O2)cc1 (relative stereo) [NHCOCH3, cis-N-{4-[2-(2,4-dichlorophenyl)-2-(1H-imidazol-1-ylmethyl)-1,3-dioxolan-4-ylmethoxy]phenyl}acetamide] | 31 mg/kg of feed | 5 |  |
| CCOC(=O)N1CCN(c2ccc(OC[C@H]3CO[C@](Cn4ccnc4)(c4ccc(Cl)cc4Cl)O3)cc2)CC1 (relative stereo) [drawing 39, cis-ethyl 4-{4-[2-(2,4-dichlorophenyl)-2-(1H-imidazol-1-ylmethyl)-1,3-dioxolan-4-ylmethoxy]phenyl}-1-piperazinecarboxylate dihydrochloride hemihydrate] |  |  | ED50 (crop candidosis in turkeys) (Candida albicans [1]; Table I, dihydrochloride hemihydrate): 31 mg/kg of feed; lowest effective oral dose (vaginal candidosis in rats) (Candida albicans [2]; dihydrochloride hemihydrate): 10 |
| NC(=O)N1CCN(c2ccc(OC[C@H]3CO[C@](Cn4ccnc4)(c4ccc(Cl)cc4Cl)O3)cc2)CC1 (relative stereo) | 125 mg/kg of feed | 5 |  |
| O=C(Nc1ccc(OC[C@H]2CO[C@](Cn3ccnc3)(c3ccc(Cl)cc3Cl)O2)cc1)Oc1ccccc1 (relative stereo) | 125 mg/kg of feed | 10 |  |
| CS(=O)(=O)N1CCN(c2ccc(OC[C@H]3CO[C@](Cn4cncn4)(c4ccc(Cl)cc4Cl)O3)cc2)CC1 (relative stereo) [SO2CH3] |  |  | ED50 (crop candidosis in turkeys) (Candida albicans [1]; Table II): 31 mg/kg of feed; minimal effective dose (Candida albicans [2]; Table II): 1.25 mg/kg |
| CNC(=O)Nc1ccc(OC[C@H]2CO[C@](Cn3ccnc3)(c3ccc(Cl)cc3Cl)O2)cc1 (relative stereo) [NHCONHCH3, cis-N-{4-[2-(2,4-dichlorophenyl)-2-(1H-imidazol-1-ylmethyl)-1,3-dioxolan-4-ylmethoxy]phenyl}-N'-methylurea] | 125 mg/kg of feed | 10 |  |
| CCCNC(=O)N1CCN(c2ccc(OC[C@H]3CO[C@](Cn4ccnc4)(c4ccc(Cl)cc4Cl)O3)cc2)CC1 (relative stereo) [cis-4-{4-[2-(2,4-dichlorophenyl)-2-(1H-imidazol-1-yl-methyl)-1,3-dioxolan-4-ylmethoxy]phenyl}-N-propyl-1-piperazinecarboxamide dihydrate] | 125 mg/kg of feed | 2.5 |  |
